Source: article PMC3388869, “High-affinity multivalent wheat germ agglutinin ligands by one-pot click reaction” (Beilstein Journal of Organic Chemistry, 2012)
Like-named read-outs stand apart in the source and are kept apart here.

How the values were obtained:
[1] = target: T1, wheat germ agglutinin (WGA) (Triticum aestivum, UniProt P10969); assay: enzyme-linked lectin assay (ELLA): inhibition of binding of HRP-labeled WGA to covalently immobilized GlcNAc; design: species or system Triticum vulgaris; settings: for β (relative inhibitory potency): referenced to N,N'-diacetylchitobiose (β = 1); for fold lower IC50 value than GlcNAc: relative to GlcNAc
T1 sequence (P10969 1-171 limits assumed): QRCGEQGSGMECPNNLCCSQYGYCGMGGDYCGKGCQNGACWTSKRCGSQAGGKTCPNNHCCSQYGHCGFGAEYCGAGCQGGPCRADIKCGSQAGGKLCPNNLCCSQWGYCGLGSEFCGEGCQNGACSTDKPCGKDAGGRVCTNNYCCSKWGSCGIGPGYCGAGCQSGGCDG
Protocol: Binding potencies of compounds C1–C6, GlcNAc, and N,N’-diacetylchitobiose were determined by an ELLA employing covalently immobilized GlcNAc as a reference ligand, as described recently. GlcNAc-coated microtiter plates were incubated with mixtures of horseradish-peroxidase-labeled WGA (HRP-WGA) and synthetic WGA ligands in varying concentrations. After incubation, the plates were washed and the remaining HRP-WGA bound to the microtiter plates was quantified by a HRP-catalyzed color reaction. From these curves the concentrations at which the binding of HRP–WGA to GlcNAc is reduced by 50% (IC50 values) were determined as a measure of the potency of the synthesized inhibitors (Table 2). Also shown in Table 2 are the relative inhibitory potencies (β values) referenced to N,N’-diacetylchitobiose (β = 1).

WGA = test system: WGA; design: method as in PMID 1472499; settings: WGA–ligand interaction; cited from earlier work
[2] = inhibition of binding of HRP-labeled WGA to covalently immobilized GlcNAc, read-out: IC50

| IC50 [1, 2] [µM] | relative potency per chitobiose residue ([1]; relative to N,N'-diacetylchitobiose, per chitobiose residue) | β (relative inhibitory potency) [1] | Structure (SMILES) | IC50 ([1]; calculated per contained chitobiose, read-out: IC50 per contained chitobiose) [µM] | fold increased inhibition potency over the best divalent ligand C4 ([1]; relative to C4) | fold lower IC50 value than GlcNAc [1] | association constant K (WGA) |
| --- | --- | --- | --- | --- | --- | --- | --- |
| 0.72 | – | – | CC(=O)N[C@H]1[C@H](OCc2cn(CCCOCCOCCOCCCn3cc(CO[C@@H]4O[C@H](CO)[C@@H](O[C@@H]5O[C@H](CO)[C@@H](O)[C@H](O)[C@H]5NC(C)=O)[C@H](O)[C@H]4NC(C)=O)nn3)nn2)O[C@H](CO)[C@@H](O[C@@H]2O[C@H](CO)[C@@H](O)[C@H](O)[C@H]2NC(C)=O)[C@@H]1O [C5] | – | – | – | – |
| 0.6 | 500 | – | CC(=O)N[C@H]1[C@H](OCc2cn(CCCOCCCCOCCCn3cc(CO[C@@H]4O[C@H](CO)[C@@H](O[C@@H]5O[C@H](CO)[C@@H](O)[C@H](O)[C@H]5NC(C)=O)[C@H](O)[C@H]4NC(C)=O)nn3)nn2)O[C@H](CO)[C@@H](O[C@@H]2O[C@H](CO)[C@@H](O)[C@H](O)[C@H]2NC(C)=O)[C@@H]1O [C4] | – | – | – | – |
| 1.9 | – | 330 | CC(=O)N[C@H]1[C@H](OCc2cn(Cc3ccc(Cn4cc(CO[C@@H]5O[C@H](CO)[C@@H](O[C@@H]6O[C@H](CO)[C@@H](O)[C@H](O)[C@H]6NC(C)=O)[C@H](O)[C@H]5NC(C)=O)nn4)cc3)nn2)O[C@H](CO)[C@@H](O[C@@H]2O[C@H](CO)[C@@H](O)[C@H](O)[C@H]2NC(C)=O)[C@@H]1O [C3] | – | – | – | – |
| 51000 | – | 1/82 | CC(=O)N[C@@H]1[C@@H](O)[C@H](O)[C@@H](CO)O[C@H]1O [GlcNAc, N-acetylglucosamine, reference compound] | – | – | – | 2 × 10^2 to 1.3 × 10^3 M^–1 |
| 290 | – | 2.1 | CC(=O)N[C@H]1[C@H](OCc2cn(Cc3ccccc3)nn2)O[C@H](CO)[C@@H](O[C@@H]2O[C@H](CO)[C@@H](O)[C@H](O)[C@H]2NC(C)=O)[C@@H]1O [C1] | – | – | – | – |
| 1.3 | – | 480 | CC(=O)N[C@H]1[C@H](OCc2cn(Cc3cccc(Cn4cc(CO[C@@H]5O[C@H](CO)[C@@H](O[C@@H]6O[C@H](CO)[C@@H](O)[C@H](O)[C@H]6NC(C)=O)[C@H](O)[C@H]5NC(C)=O)nn4)c3)nn2)O[C@H](CO)[C@@H](O[C@@H]2O[C@H](CO)[C@@H](O)[C@H](O)[C@H]2NC(C)=O)[C@@H]1O [C2] | – | – | – | – |
| 620 | – | 1 | CC(=O)N[C@H]1[C@H](O[C@H]2[C@H](O)[C@@H](NC(C)=O)C(O)O[C@@H]2CO)O[C@H](CO)[C@@H](O)[C@@H]1O (stereo partly drawn) [N,N'-diacetylchitobiose, reference compound] | – | – | 82 | 5 × 10^3 to 2 × 10^4 M^–1 |

| Structure (SMILES) | IC50 [1, 2] [µM] | relative potency per chitobiose residue ([1]; relative to N,N'-diacetylchitobiose, per chitobiose residue) | β (relative inhibitory potency) [1] | IC50 ([1]; calculated per contained chitobiose, read-out: IC50 per contained chitobiose) [µM] | fold increased inhibition potency over the best divalent ligand C4 ([1]; relative to C4) | fold lower IC50 value than GlcNAc [1] | association constant K (WGA) |
| --- | --- | --- | --- | --- | --- | --- | --- |
| CC(=O)N[C@H]1[C@H](OCc2cn(CCN(CCn3cc(CO[C@@H]4O[C@H](CO)[C@@H](O[C@@H]5O[C@H](CO)[C@@H](O)[C@H](O)[C@H]5NC(C)=O)[C@H](O)[C@H]4NC(C)=O)nn3)CCn3cc(CO[C@@H]4O[C@H](CO)[C@@H](O[C@@H]5O[C@H](CO)[C@@H](O)[C@H](O)[C@H]5NC(C)=O)[C@H](O)[C@H]4NC(C)=O)nn3)nn2)O[C@H](CO)[C@@H](O[C@@H]2O[C@H](CO)[C@@H](O)[C@H](O)[C@H]2NC(C)=O)[C@@H]1O [C6] | 0.22 | – | 2800 | 0.66 | 2.8 | 230000 | – |
